Source: US8114862B2, “TGR5 modulators and methods of use thereof” (Intercept Pharmaceuticals, Inc., priority 2008, dated 2012)
“And” between values parts separate entries of the source, which are not always exact repeats. Identical values can stand only once.

What was measured:
NCI-H716 cells = assay: NCI-H716 cell experiments (ATP, intracellular calcium, GLP-1 release); format: cell-based, human
ileal explants = assay: GLP-1 release ex vivo from ileal explants; set-up: species or system mouse; details: 1 h exposure, explants from 18-weeks HF-fed TGR5-Tg male mice
Method: . Pellicciari et al., 2007, J. Med. Chem. 50, 4265-4268). cAMP production was performed as described (Sato et al., 2008, J. Med. Chem. 51, 1831; Watanabe et al., 2006, Nature 439, 484). […] ATP/ADP ratio and GLP-1 release were measured according to the manufacturers' instructions (Biovision and Millipore, respectively). Primary brown adipocytes were prepared as previously described (Watanabe et al., 2006, Nature 439, 484), and ileal explants were prepared according to an established method (Cima et al., 2004, J. Exp. Med. 200, 1635-1646).
Plasma parameters and hepatic and fecal lipid content were measured as described (Mataki et al., 2007, Mol. Cell. Biol. 27, 8330-8339). Hematoxylin and eosin (H&E), Sirius red, and oil red 0 staining were performed as described (Mark al., 2007, Curr. Protoc. Mol. Biol. Chapter 29, Unit 29B, 24), and micrographs were taken on wide-field microscopes (Leica) with a CCD camera. For pancreatic sections, islets were sized and counted from four HE-stained alternated sections spaced of […] using ImageJ software (five animals per group). […] Insulin was extracted after O/N incubation at −20° C. in acid ethanol and measured by ELISA on PBS-diluted samples according to the manufacturer's instructions (Mercodia). GLP-1 release was measured in vitro, ex vivo, and in vivo according to methods known in the art.

VDR = biological target: T1, VDR (Homo sapiens, UniProt P11473); assay: VDR coactivator recruitment assay
T1 sequence (P11473 127-423 limits assumed): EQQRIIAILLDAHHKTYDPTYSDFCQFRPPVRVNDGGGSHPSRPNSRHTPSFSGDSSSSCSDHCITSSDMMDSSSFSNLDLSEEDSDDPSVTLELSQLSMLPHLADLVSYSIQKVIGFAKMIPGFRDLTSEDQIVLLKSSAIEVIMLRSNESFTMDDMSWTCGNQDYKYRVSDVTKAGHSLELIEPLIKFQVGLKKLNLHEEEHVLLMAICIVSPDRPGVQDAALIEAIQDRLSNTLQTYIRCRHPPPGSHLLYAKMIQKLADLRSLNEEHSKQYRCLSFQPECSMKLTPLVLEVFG
Method: Lanthascreen assay (Invitrogen) was used for nulear receptor selectivity assay. The kit uses a terbium-labeled anti-GST antibody, a fluorescein-labeled coactivator peptide, and a NR ligand-binding domain that is tagged with glutathione-S-transferase (GST) in a homogenous mix-and-read assay format. […] Following 1 hour incubation in the dark, TR-FRET measurements were made in the Envision. […] The data was analyzed using GraphPad Prism using the sigmoidal curve equation with variable slope to obtain EC50 values.

[1] = Octanol/water partition coefficient (shake-flask); format: physicochemical; details: pH 8
Method: Since the sulphate and sulphonated analogues are always ionised at all pH values the octanol/water partition coefficient was measured for all molecules in ionized form and therefore the carboxy analogues were studied at high pH. 1-Octanol/water partition coefficient (log P) was evaluated using a conventional shake-flask procedure. […] The aqueous buffer was previously pre-saturated with 1-octanol, 5 ml of 1-octanol pre-saturated with water was then added and the samples were left to equilibrate for 2 weeks under continuous stirring at room temperature After centrifugation the two phases were carefully separated. […] The mass spectrometry acquisition was performed in the multiple reaction monitoring mode using the ESI source in negative ionization.

[2] = Choleretic effect (bile flow) in bile fistula rat, id and iv infusion; format: in vivo; details: for SV0: maximum bile secretion rate: 1 (μmol/min)/kg bw over 1 h
LXRα = biological target: T2, LXRα (Homo sapiens, UniProt Q13133); assay: LXR coactivator recruitment (alphascreen); format: biochemical
T2 sequence (Q13133 1-447): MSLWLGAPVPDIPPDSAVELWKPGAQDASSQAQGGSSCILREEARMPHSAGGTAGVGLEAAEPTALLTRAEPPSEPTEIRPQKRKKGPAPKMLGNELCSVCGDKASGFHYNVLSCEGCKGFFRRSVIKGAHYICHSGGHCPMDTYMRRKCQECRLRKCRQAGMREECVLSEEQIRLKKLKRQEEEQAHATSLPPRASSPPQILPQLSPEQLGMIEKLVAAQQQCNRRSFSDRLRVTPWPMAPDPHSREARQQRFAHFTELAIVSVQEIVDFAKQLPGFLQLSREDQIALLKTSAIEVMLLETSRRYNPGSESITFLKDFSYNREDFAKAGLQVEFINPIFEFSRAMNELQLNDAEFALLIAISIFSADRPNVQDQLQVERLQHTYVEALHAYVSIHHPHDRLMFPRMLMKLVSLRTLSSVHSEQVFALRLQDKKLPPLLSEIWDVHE

DIO and db/db mice = assay: Glucose homeostasis and insulin sensitivity in DIO and db/db mice (Example 21); format: in vivo, mouse
Method: Animals were housed and bred according to standardized procedures (Argmann and Auwerx, 2006b). Age-matched male mice were used for all experiments. Genetically engineered mouse models (GEMMs), i.e., TGR5-Tg and TGR5^−/− mice, were generated as described in the Supplemental Data. […]; Research Diets) for at least 8 weeks, as mentioned in the text and figure legends. […] Mouse phenotyping experiments were performed according to EMPRESS protocols (see, for example, Empress (European Mouse Phenotyping Resource of Standardised Screening) website) and were aimed to assess food and water intake, body composition (Argmann et al., 2006a, Curr. Protoc. Mol. Biol. Chapter 29, Unit 29A, 23), energy expenditure (Argmann et al., 2006a, Curr. Protoc. Mol. Biol. Chapter 29, Unit 29A, 23), glucose and lipid homeostasis (Argmann et al., 2006b, Curr. Protoc. Mol. Biol. Chapter 29, Unit 29A, 22); Heikkinen et al., 2007, Curr. Protoc. Mol. Chapter. 29, Unit 29B, 23; Mataki et al., 2007, Mol. Cell. Biol. 27, 8330), and plasma biochemistry (Argmann and Auwerx, 2006a, Curr. Protoc. Mol. Biol. Chapter 29, Unit 29A, 22). Tissues and blood were collected and processed for histopathology, blood chemistry, and gene expression according to standardized procedures (Argmann and Auwerx, 2006a; Feige et al., 2008b; Mark et al., 2007; Watanabe et al., 2006). Hyperinsulinemic euglycemic clamp studies were performed as described (Feige et al., 2008b), with minor modifications including a change in the initial insulin bolus (30 mU/kg) and insulin infusion rate (10 mU/min/kg). Plasma GLP-1 levels were measured by ELISA (Millipore) on blood collected by retro-orbital puncture. […].
To further characterize the impact of compound Ih3e on glucose homeostasis and insulin sensitivity, a hyperinsulinemic euglycemic glucose clamp was performed on these DIO mice. […]. These effects correlated with normalization in the expression of key genes involved in hepatic glucose homeostasis (FIG. 21G).

[3] = Biliary secretion and hepatic metabolism in bile fistula rat after femoral infusion (Example 22); format: in vivo; details: after iv administration
Method: In order to clarify this point the two pure isomers were administered by femoral infusion (i.v.) to a bile fistula rat model at a single dose of 1 μmol/min/kg bw for 1 hour and bile samples were collected for 3 hours. The effect on bile flow, on biliary secretion of the parent compound and of the main metabolite were also evaluated.
Bile samples collected at different times during the iv experiments were analyzed to determine the biliary secretions of the administered isomers and their main metabolites recovered in bile.
When samples were found out of linearity range, they were diluted and reanalyzed.
Rat bile samples were analyzed by HPLC-ESI-MS/MS using the ESI source in negative ionization mode. […] The autosampler was maintained at 7° C. […] Capillary voltage was 3.0 kV.
Calibration samples were obtained in the 0.1-20 μmol/L concentration range prepared in the mobile phase. […] Finally, calibration curves obtained for the free BA were used to estimate taurine conjugated metabolites.

[4] = Stability in human liver microsomes; details: liver microsomes

CC[C@H]1[C@@H](O)[C@@H]2[C@H](C[C@H](O)[C@]3(C)[C@@H]([C@H](C)C[C@H](C)C(=O)O)CC[C@@H]23)[C@@]2(C)CC[C@@H](O)C[C@@H]12 [Ih3e, 6α-ethyl-(23S)-methyl-3α,7α,12α trihydroxy-5β-cholan-24-oic acid]
ATP production (NCI-H716 cells; NCI-H716): increased ATP production in a cAMP-dependent manner | calcium influx (NCI-H716 cells; NCI-H716): robustly increased calcium influx | GLP-1 release (NCI-H716 cells; NCI-H716, with glucose): rise in GLP-1 release | GLP-1 release ex vivo (ileal explants): dramatically and dose-dependently induces the release of GLP-1 ex vivo | VDR Activation EC50 (VDR): No activity | LogPA- (1-octanol-water partition coefficient, ionized species) [1]: 1.4 and 1.44 | duration of increased bile flow ([2]; duodenal infusion): at least 3 hours | maximum bile flow rate ([2]; duodenal infusion 1 μmol/kg/min, 1 hour): about 120 μL/min/kg | SV0: maximum bile secretion rate ([2]; id infusion): 112 ± 12 (μL/min)/kg bw | bile flow rate ([2]; iv (femoral) infusion): significantly increased the bile flow rate | SV0: maximum bile secretion rate ([2]; iv infusion): (131 ± 11) (μL/min)/kg bw | LXRα Activation EC50 (LXRα): No activity | fasting glucose and insulin levels (DIO and db/db mice; DIO and db/db mice): decreased | glucose-stimulated insulin secretion profile (DIO and db/db mice; DIO and db/db mice): improvement | glucose tolerance after an oral challenge with glucose (DIO and db/db mice; DIO and db/db mice, 30 mkd): robustly improved glucose tolerance | glucose infusion rate required to maintain euglycemia (DIO and db/db mice; DIO mice, hyperinsulinemic euglycemic clamp): virtually identical to that observed in CD-fed control mice | body weight (DIO and db/db mice; HF-fed C57BL6/J mice, 30 mg/kg/d for 8 weeks): 32.26 ± 0.95 g | hepatic glucose production, glucose disposal rate, suppression of glucose production by insulin (DIO and db/db mice; HF-fed mice, clamp): normalized these parameters to the values observed in CD-fed mice | insulin-stimulated 14C-deoxyglucose uptake (DIO and db/db mice; clamp): reduced insulin resistance in liver and muscle | expression of key genes involved in hepatic glucose homeostasis (DIO and db/db mice; mouse, in vivo): normalization | biliary secretion [3]: efficient | half-life [4]: 32.4 h
